From the supplement of paper PMC10307832

Legend:
Experiment in all cases: relative viability (nuclei count vs DMSO), 5 days (fraction); higher = more cells survive
[1] = compound: Cn1c(Nc2ccc(C(F)(F)F)cc2)nc2cc(Oc3ccnc(-c4ncc(C(F)(F)F)[nH]4)c3)ccc21 [RAF265] + CC(C)C[C@H](NC(=O)[C@H](Cc1ccccc1)NC(=O)c1cnccn1)B(O)O [Bortezomib] (partner 0.002 µM)
Procedure, shortened: (§1)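 Dosing by pin tool came one day after lung cancer cell lines were seeded in 1536-well plates, using either one drug or a fixed anchor-drug dose plus five library-drug doses (not always all listed) in √10 steps. After 5 days, nuclei were counted on 4× images. Relative viability is treated-well nuclei count divided by vehicle-well nuclei count, and values are medians of duplicate plates.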

[2] = compound: Cc1ccc(-n2nc(C(C)(C)C)cc2NC(=O)Nc2ccc(OCCN3CCOCC3)c3ccccc23)cc1 [Doramapimod] + O=C(CCCCCCC(=O)Nc1ccccc1)NO [Vorinostat] (partner 1 µM)
Procedure, shortened: as §1

[3] = compound: C1=CC=C2C(=C1)C=CC(=C2SSC3=C(C=CC4=CC=CC=C43)O)O [IPA-3] + CCNC(=O)c1noc(-c2cc(C(C)C)c(O)cc2O)c1-c1ccc(CN2CCOCC2)cc1 [Luminespib] (partner 0.01 µM)
Procedure, shortened: as §1

[4] = compound: Cc1ccc(-n2nc(C(C)(C)C)cc2NC(=O)Nc2ccc(OCCN3CCOCC3)c3ccccc23)cc1 [Doramapimod] + Nc1ncn([C@H]2C[C@H](O)[C@@H](CO)O2)c(=O)n1 [Decitabine] (partner 2 µM)
Procedure, shortened: as §1

Cell Line	relative viability ([1]; first compound 0.01 µM)	relative viability ([1]; first compound 0.03162 µM)	relative viability ([1]; first compound 0.1 µM)	relative viability ([1]; first compound 0.3162 µM)	relative viability ([1]; first compound 1 µM)	relative viability ([2]; first compound 0.02 µM)	relative viability ([2]; first compound 0.06325 µM)	relative viability ([2]; first compound 0.2 µM)	relative viability ([2]; first compound 0.6325 µM)	relative viability ([2]; first compound 2 µM)	relative viability ([3]; first compound 0.2 µM)	relative viability ([3]; first compound 0.6325 µM)	relative viability ([3]; first compound 2 µM)	relative viability ([3]; first compound 6.325 µM)	relative viability ([3]; first compound 20 µM)	relative viability ([4]; first compound 0.02 µM)	relative viability ([4]; first compound 0.06325 µM)	relative viability ([4]; first compound 0.2 µM)	relative viability ([4]; first compound 0.6325 µM)	relative viability ([4]; first compound 2 µM)
201T	1.08	1.1	1.07	1.11	1.1	0.994	1.03	1.06	0.672	1	1.07	1.02	1.08	1.05	1.14	0.857	0.863	0.886	0.921	0.925
A549	–	–	–	–	–	–	–	–	–	–	–	–	–	–	–	0.235	0.309	0.312	0.175	0.278
A-427	0.98	0.867	1	1.1	0.494	0.905	0.889	0.904	–	0.904	1.02	0.855	0.999	0.803	1.02	0.588	0.557	0.536	–	0.541
ABC-1	0.308	0.321	0.278	0.284	0.303	1.25	1.29	1.21	0.865	1.15	0.723	–	0.573	–	0.29	1	1.19	0.983	0.959	1.01
BEN	0.993	0.878	0.777	0.85	0.547	0.54	0.561	0.513	0.458	0.584	0.387	0.439	0.386	0.576	0.472	0.69	0.769	0.799	0.512	0.675
CAL-12T	1.06	0.834	0.836	0.476	0.64	0.621	0.787	0.713	0.945	0.754	0.724	0.287	0.449	0.375	0.488	–	–	–	–	–
COR-L23	1.05	0.87	0.964	0.706	0.511	0.449	0.489	0.386	0.537	0.424	0.866	0.627	0.725	0.643	0.48	0.409	0.412	0.507	0.432	0.41
COR-L 105	0.902	0.771	0.647	0.442	0.56	0.671	0.881	0.763	1	0.764	0.866	0.858	0.771	0.826	0.97	0.602	0.641	0.718	0.802	0.676
Calu-6	0.919	0.819	0.834	0.473	0.368	–	–	–	–	–	–	–	–	–	–	–	–	–	–	–
ChaGo-K-1	0.92	1.08	1.12	1.03	0.662	0.778	0.769	0.689	0.596	0.64	0.734	0.539	0.58	0.632	0.58	0.555	0.54	0.541	0.49	0.503
